# Results: ChEMBL document CHEMBL3885861, “Open TG-GATES”
# Species: Rattus norvegicus
# Test: Open TG-GATES - Regimen: Single
# Format: toxicity, organism-based, Sprague-Dawley
# Design: regimen Single, gender Male, age 6 weeks
# Settings: in vivo, ip, route intraperitoneal injection; for Bas / Eos / Ht / Lym / MCHC / MCV / Mono / Neu / PT / Plat / RBC / Ret / WBC / APTT / Fbg / Hb / MCH: tissue Blood; for KIDNEY_L / KIDNEY_R / KIDNEY_TOTAL: tissue Kidney; for LIVER: tissue Liver; for ALP / ALT / AST / BUN / CRE / DBIL / IP / K / LDH / PL / RALB / TBIL / TC / TG / TP / gamma-GTP / GLC / Ca / Na: tissue Plasma
# [1] = 0 mg/kg, 3 h, dose 0 ug/Kg, dose level Control
# [2] = 0 mg/kg, 6 h, dose 0 ug/Kg, dose level Control
# [3] = 0 mg/kg, 9 h, dose 0 ug/Kg, dose level Control
# [4] = 0 mg/kg, 24 h, dose 0 ug/Kg, dose level Control
# [5] = 0.01 mg/kg, 3 h, dose 10 ug/Kg, dose level Low
# [6] = 0.01 mg/kg, 6 h, dose 10 ug/Kg, dose level Low
# [7] = 0.01 mg/kg, 9 h, dose 10 ug/Kg, dose level Low
# [8] = 0.01 mg/kg, 24 h, dose 10 ug/Kg, dose level Low
substance,measurement,setting,value
LPS,TERMINAL_BW,[1],194.6 g
same,Bas,[1],0.3%
same,Eos,[1],0.7%
same,Ht,[1],40.7%
same,Lym,[1],72%
same,MCHC,[1],32.8%
same,MCV,[1],63.3 fL
same,Mono,[1],4%
same,Neu,[1],21.3%
same,PT,[1],15.7 s
same,Plat,[1],123.5 x10_4/uL
same,RBC,[1],644.3 x10_4/ul
same,Ret,[1],9.4%
same,WBC,[1],91.5 x10_2/uL
same,KIDNEY_L,[1],0.9 g
same,KIDNEY_R,[1],0.9 g
same,KIDNEY_TOTAL,[1],1.8 g
same,LIVER,[1],8.6 g
same,ALP,[1],1094.7 IU/L
same,ALT,[1],41.7 IU/L
same,AST,[1],78.3 IU/L
same,BUN,[1],8.7 mg/dL
same,CRE,[1],0.2 mg/dL
same,DBIL,[1],0.01 mg/dL
same,IP,[1],9.2 mg/dL
same,K,[1],4 meq/L
same,LDH,[1],110 IU/L
same,PL,[1],136.3 mg/dL
same,RALB,[1],2.5 g/dL
same,TBIL,[1],0.0467 mg/dL
same,TC,[1],76 mg/dL
same,TG,[1],41.3 mg/dL
same,TP,[1],5.3 g/dL
same,gamma-GTP,[1],1 IU/L
same,TERMINAL_BW,[2],195.4 g
same,APTT,[2],18.1 s
same,Bas,[2],0%
same,Eos,[2],0.3%
same,Fbg,[2],298.7 mg/dL
same,Hb,[2],12.9 g/dL
same,Ht,[2],39.5%
same,Lym,[2],71.3%
same,MCHC,[2],32.6%
same,MCV,[2],65.8 fL
same,Mono,[2],2.3%
same,Neu,[2],25%
same,PT,[2],15.7 s
same,Plat,[2],114.9 x10_4/uL
same,RBC,[2],601.3 x10_4/ul
same,Ret,[2],9.6%
same,WBC,[2],101.7 x10_2/uL
same,KIDNEY_L,[2],0.9 g
same,KIDNEY_R,[2],0.9 g
same,KIDNEY_TOTAL,[2],1.7 g
same,LIVER,[2],7.9 g
same,ALP,[2],1269.3 IU/L
same,ALT,[2],37.7 IU/L
same,AST,[2],75.7 IU/L
same,BUN,[2],7.3 mg/dL
same,CRE,[2],0.2 mg/dL
same,DBIL,[2],0.01 mg/dL
same,GLC,[2],178.3 mg/dL
same,IP,[2],10 mg/dL
same,K,[2],3.7 meq/L
same,LDH,[2],74 IU/L
same,PL,[2],138.7 mg/dL
same,RALB,[2],2.5 g/dL
same,TBIL,[2],0.0433 mg/dL
same,TC,[2],79.3 mg/dL
same,TG,[2],24.7 mg/dL
same,TP,[2],5.4 g/dL
same,gamma-GTP,[2],1 IU/L
same,TERMINAL_BW,[3],191.3 g
same,APTT,[3],17.1 s
same,Bas,[3],0%
same,Eos,[3],1%
same,Fbg,[3],304.3 mg/dL
same,Ht,[3],38.4%
same,Lym,[3],63.3%
same,MCHC,[3],32.8%
same,Mono,[3],2%
same,Neu,[3],33.7%
same,Plat,[3],116.1 x10_4/uL
same,RBC,[3],624 x10_4/ul
same,Ret,[3],8.1%
same,WBC,[3],71.4 x10_2/uL
same,KIDNEY_L,[3],0.9 g
same,KIDNEY_R,[3],0.9 g
same,KIDNEY_TOTAL,[3],1.8 g
same,LIVER,[3],7 g
same,ALP,[3],1080.7 IU/L
same,ALT,[3],48 IU/L
same,AST,[3],79 IU/L
same,BUN,[3],8.3 mg/dL
same,CRE,[3],0.2 mg/dL
same,Ca,[3],10 mg/dL
same,DBIL,[3],0.0033 mg/dL
same,GLC,[3],165 mg/dL
same,IP,[3],9.5 mg/dL
same,K,[3],3.8 meq/L
same,LDH,[3],53.7 IU/L
same,PL,[3],124.7 mg/dL
same,RALB,[3],2.4 g/dL
same,TBIL,[3],0.0467 mg/dL
same,TC,[3],73.3 mg/dL
same,TG,[3],13.3 mg/dL
same,TP,[3],5.2 g/dL
same,gamma-GTP,[3],1 IU/L
same,TERMINAL_BW,[4],209.1 g
same,Bas,[4],0.3%
same,Eos,[4],1.3%
same,Fbg,[4],302.3 mg/dL
same,Hb,[4],12.9 g/dL
same,Ht,[4],39.4%
same,Lym,[4],76.3%
same,MCH,[4],21 pg
same,MCHC,[4],32.8%
same,MCV,[4],64 fL
same,Mono,[4],3.7%
same,Neu,[4],17.3%
same,PT,[4],15.2 s
same,Plat,[4],115.4 x10_4/uL
same,RBC,[4],616.3 x10_4/ul
same,Ret,[4],8.6%
same,WBC,[4],115.5 x10_2/uL
same,KIDNEY_L,[4],0.9 g
same,KIDNEY_R,[4],0.9 g
same,KIDNEY_TOTAL,[4],1.8 g
same,LIVER,[4],9.7 g
same,ALP,[4],1572.7 IU/L
same,ALT,[4],48.3 IU/L
same,AST,[4],78 IU/L
same,BUN,[4],15 mg/dL
same,CRE,[4],0.2 mg/dL
same,DBIL,[4],0.01 mg/dL
same,GLC,[4],170.7 mg/dL
same,IP,[4],8.6 mg/dL
same,K,[4],4.4 meq/L
same,LDH,[4],86.7 IU/L
same,PL,[4],171.3 mg/dL
same,RALB,[4],2.6 g/dL
same,TBIL,[4],0.0533 mg/dL
same,TC,[4],98.7 mg/dL
same,TG,[4],55.3 mg/dL
same,TP,[4],5.7 g/dL
same,gamma-GTP,[4],1 IU/L
same,TERMINAL_BW,[5],192 g
same,Bas,[5],0%
same,Eos,[5],0%
same,Fbg,[5],249 mg/dL
same,Hb,[5],12.9 g/dL
same,Lym,[5],66%
same,MCH,[5],21 pg
same,MCHC,[5],32.9%
same,MCV,[5],63.9 fL
same,Mono,[5],2.3%
same,Neu,[5],30.3%
same,PT,[5],15.6 s
same,Plat,[5],106.2 x10_4/uL
same,RBC,[5],614.3 x10_4/ul
same,Ret,[5],9.4%
same,WBC,[5],59.5 x10_2/uL
same,KIDNEY_L,[5],0.9 g
same,KIDNEY_R,[5],0.9 g
same,KIDNEY_TOTAL,[5],1.8 g
same,LIVER,[5],8.5 g
same,ALP,[5],1371 IU/L
same,ALT,[5],39.3 IU/L
same,AST,[5],80.7 IU/L
same,BUN,[5],9.3 mg/dL
same,CRE,[5],0.2 mg/dL
same,DBIL,[5],0.0033 mg/dL
same,GLC,[5],151.7 mg/dL
same,IP,[5],9.1 mg/dL
same,K,[5],3.9 meq/L
same,LDH,[5],87.7 IU/L
same,PL,[5],141.3 mg/dL
same,RALB,[5],2.4 g/dL
same,TBIL,[5],0.0433 mg/dL
same,TC,[5],75.3 mg/dL
same,TG,[5],50.7 mg/dL
same,TP,[5],5.2 g/dL
same,gamma-GTP,[5],0.7 IU/L
same,TERMINAL_BW,[6],188.9 g
same,APTT,[6],20.9 s
same,Bas,[6],0%
same,Eos,[6],1%
same,Fbg,[6],308 mg/dL
same,Ht,[6],40.2%
same,Lym,[6],27%
same,MCH,[6],21 pg
same,MCV,[6],63.3 fL
same,Mono,[6],1%
same,Neu,[6],71%
same,Plat,[6],84.5 x10_4/uL
same,RBC,[6],634.3 x10_4/ul
same,Ret,[6],7.8%
same,WBC,[6],67.1 x10_2/uL
same,KIDNEY_L,[6],0.9 g
same,KIDNEY_R,[6],0.9 g
same,KIDNEY_TOTAL,[6],1.7 g
same,LIVER,[6],7.6 g
same,ALP,[6],1287.3 IU/L
same,ALT,[6],58.7 IU/L
same,AST,[6],96.7 IU/L
same,BUN,[6],8.3 mg/dL
same,CRE,[6],0.2 mg/dL
same,Ca,[6],9.9 mg/dL
same,DBIL,[6],0.0167 mg/dL
same,GLC,[6],150.7 mg/dL
same,IP,[6],9.5 mg/dL
same,K,[6],3.9 meq/L
same,LDH,[6],75.3 IU/L
same,Na,[6],139.7 meq/L
same,PL,[6],154.3 mg/dL
same,RALB,[6],2.5 g/dL
same,TBIL,[6],0.0667 mg/dL
same,TC,[6],91.7 mg/dL
same,TG,[6],27.3 mg/dL
same,TP,[6],5.4 g/dL
same,gamma-GTP,[6],1.7 IU/L
same,TERMINAL_BW,[7],187.9 g
same,APTT,[7],16.6 s
same,Bas,[7],0%
same,Eos,[7],0%
same,Fbg,[7],373 mg/dL
same,Ht,[7],40.9%
same,Lym,[7],58.3%
same,MCHC,[7],33%
same,MCV,[7],64.5 fL
same,Mono,[7],2%
same,Neu,[7],38.7%
same,PT,[7],16 s
same,Plat,[7],105.1 x10_4/uL
same,RBC,[7],633.7 x10_4/ul
same,Ret,[7],8.7%
same,WBC,[7],86.6 x10_2/uL
same,KIDNEY_L,[7],0.9 g
same,KIDNEY_R,[7],0.8 g
same,KIDNEY_TOTAL,[7],1.7 g
same,LIVER,[7],7.1 g
same,ALP,[7],1456.3 IU/L
same,ALT,[7],37 IU/L
same,AST,[7],77.3 IU/L
same,BUN,[7],6.7 mg/dL
same,CRE,[7],0.2 mg/dL
same,DBIL,[7],0.0067 mg/dL
same,GLC,[7],162.7 mg/dL
same,IP,[7],9.8 mg/dL
same,K,[7],3.6 meq/L
same,LDH,[7],61 IU/L
same,Na,[7],143.7 meq/L
same,PL,[7],151 mg/dL
same,RALB,[7],2.5 g/dL
same,TBIL,[7],0.0567 mg/dL
same,TC,[7],89 mg/dL
same,TG,[7],21 mg/dL
same,TP,[7],5.4 g/dL
same,gamma-GTP,[7],1 IU/L
same,TERMINAL_BW,[8],198.5 g
same,Bas,[8],0%
same,Eos,[8],1%
same,Fbg,[8],435.3 mg/dL
same,Hb,[8],13.6 g/dL
same,Lym,[8],66.3%
same,MCH,[8],21 pg
same,MCHC,[8],32.7%
same,MCV,[8],64.2 fL
same,Mono,[8],2.3%
same,Neu,[8],29%
same,PT,[8],14.6 s
same,Plat,[8],77.7 x10_4/uL
same,RBC,[8],646.7 x10_4/ul
same,Ret,[8],7.3%
same,WBC,[8],85.5 x10_2/uL
same,KIDNEY_L,[8],0.9 g
same,KIDNEY_R,[8],0.9 g
same,KIDNEY_TOTAL,[8],1.8 g
same,LIVER,[8],9.1 g
same,ALP,[8],2203 IU/L
same,ALT,[8],39.3 IU/L
same,AST,[8],71.7 IU/L
same,BUN,[8],16.3 mg/dL
same,CRE,[8],0.2 mg/dL
same,DBIL,[8],0.01 mg/dL
same,GLC,[8],189 mg/dL
same,IP,[8],8.8 mg/dL
same,K,[8],4.5 meq/L
same,LDH,[8],77.3 IU/L
same,PL,[8],168 mg/dL
same,RALB,[8],2.6 g/dL
same,TBIL,[8],0.0633 mg/dL
same,TC,[8],94.7 mg/dL
same,TG,[8],52.3 mg/dL
same,TP,[8],5.6 g/dL
same,gamma-GTP,[8],1 IU/L
same,TERMINAL_BW,"0.3 mg/kg, 3 h, dose 300 ug/Kg, dose level Middle",194.5 g
